Where “and” joins values, the source holds several entries; their conditions need not be identical. Equal entries are not always repeated. Inconclusive results and toxic doses are left out.
System: P388 leukemia ip, CD2F1 mice, survival T/C
Assay: NCI In Vivo Anticancer Drug Screen. Data for tumor model P388 Leukemia (intraperitoneal) in CD2F1 (CDF1) mice
Conditions: endpoint: median survival time, higher = longer survival
Description: The antitumor activity of compounds was measured in mice bearing transplantable tumors. Survival or tumor size were measured and the results are expressed as the measurement made in the treated group (T) divided by the measurement made in the vehicle treated control group (C). The tumor model used in this assay is P388 Leukemia (intraperitoneal) in CD2F1 (CDF1) mice

[1] = dose: 25.0 mg/kg/injection, schedule: Q01DX009 (ip), vehicle: saline with Tween-80
[2] = dose: 50.0 mg/kg/injection, schedule: Q01DX009 (ip), vehicle: saline with Tween-80
[3] = dose: 100.0 mg/kg/injection, schedule: Q04DX003 (ip), vehicle: saline with Tween-80
[4] = dose: 60.0 mg/kg/injection, schedule: Q01DX005 (ip), vehicle: saline with Tween-80
[5] = dose: 120.0 mg/kg/injection, schedule: Q01DX005 (ip), vehicle: saline with Tween-80
[6] = dose: 240.0 mg/kg/injection, schedule: Q01DX005 (ip), vehicle: saline with Tween-80
[7] = dose: 50.0 mg/kg/injection, schedule: Q01DX005 (ip), vehicle: saline with Tween-80
[8] = dose: 100.0 mg/kg/injection, schedule: Q01DX005 (ip), vehicle: saline with Tween-80
[9] = dose: 200.0 mg/kg/injection, schedule: Q01DX005 (ip), vehicle: saline with Tween-80
[10] = dose: 100.0 mg/kg/injection, schedule: Q01DX009 (ip), vehicle: saline with Tween-80
[11] = dose: 200.0 mg/kg/injection, schedule: Q01DX009 (ip), vehicle: saline with Tween-80
[12] = dose: 50.0 mg/kg/injection, schedule: Q01DX005 (ip), vehicle: Klucel (hydroxypropylcellulose) (HPC)
[13] = dose: 100.0 mg/kg/injection, schedule: Q01DX005 (ip), vehicle: Klucel (hydroxypropylcellulose) (HPC)
[14] = dose: 200.0 mg/kg/injection, schedule: Q01DX005 (ip), vehicle: Klucel (hydroxypropylcellulose) (HPC)
[15] = dose: 100.0 mg/kg/injection, schedule: Q01DX001 (ip), vehicle: saline with Tween-80
[16] = dose: 200.0 mg/kg/injection, schedule: Q01DX001 (ip), vehicle: saline with Tween-80
[17] = dose: 12.5 mg/kg/injection, schedule: Q01DX009 (ip), vehicle: Klucel (hydroxypropylcellulose) (HPC)
[18] = dose: 25.0 mg/kg/injection, schedule: Q01DX009 (ip), vehicle: Klucel (hydroxypropylcellulose) (HPC)
[19] = dose: 50.0 mg/kg/injection, schedule: Q01DX009 (ip), vehicle: Klucel (hydroxypropylcellulose) (HPC)

COc1cc(OC)c(Br)cc1C was tested, and the T/C (dose: 12.5 mg/kg/injection, schedule: Q01DX009 (ip), vehicle: saline with Tween-80) was 100 % of control, the T/C [1] was 91 % of control and the T/C [2] was 91 % of control. For the same molecule, the T/C [3] was 104 % of control, the T/C (dose: 200.0 mg/kg/injection, schedule: Q04DX003 (ip), vehicle: saline with Tween-80) was 104 % of control and the T/C (dose: 400.0 mg/kg/injection, schedule: Q04DX003 (ip), vehicle: saline with Tween-80) was 104 % of control.

Nc1nnc(-c2ccccc2S)o1 was tested, and the T/C [4] was 103 % of control, the T/C [5] was 108 % of control and the T/C [6] was 110 % of control.

Clc1nnc(Cl)c(Cl)c1Cl was tested, and the T/C (dose: 0.1 mg/kg/injection, schedule: Q01DX009 (ip), vehicle: saline with Tween-80) was 100 % of control, the T/C (dose: 0.1 mg/kg/injection, schedule: Q04DX003 (ip), vehicle: saline with Tween-80) was 100 % of control and the T/C (dose: 0.2 mg/kg/injection, schedule: Q01DX009 (ip), vehicle: saline with Tween-80) was 95 % of control. For the same molecule, the T/C (dose: 0.2 mg/kg/injection, schedule: Q04DX003 (ip), vehicle: saline with Tween-80) was 100 % of control, the T/C (dose: 0.38 mg/kg/injection, schedule: Q04DX003 (ip), vehicle: saline with Tween-80) was 90 % of control and the T/C (dose: 0.4 mg/kg/injection, schedule: Q04DX003 (ip), vehicle: saline with Tween-80) was 100 % of control.

In the case of CC1CC(O)C(=O)C2(C)C1CC1OC(=O)CC3C(C)C(=O)C(O)C2C13 (stereo not drawn), the T/C [7] is reported as 100 % of control, the T/C [8] is reported as 104 % of control and the T/C [9] is reported as 99 % of control.

CC1C2c3ccccc3C(c3ccccc32)C1CO (stereo not drawn) was tested, and the T/C [7] was 92 % of control, the T/C [8] was 91 % of control and the T/C [9] was 90 % of control.

For O=S1(=O)c2ccccc2C(O)(c2ccccc2)c2cc3ccccc3n21 (stereo not drawn), the T/C [2] was 93 % of control, the T/C [10] was 96 % of control and the T/C [11] was 92 % of control.

With O=c1c2ccccc2nc2sc3nc4ccccc4c(=O)n3n12 the T/C (dose: 15.0 mg/kg/injection, schedule: Q01DX005 (ip), vehicle: Klucel (hydroxypropylcellulose) (HPC)) was 94 % of control, the T/C (dose: 30.0 mg/kg/injection, schedule: Q01DX005 (ip), vehicle: Klucel (hydroxypropylcellulose) (HPC)) was 91 % of control and the T/C (dose: 60.0 mg/kg/injection, schedule: Q01DX005 (ip), vehicle: Klucel (hydroxypropylcellulose) (HPC)) was 88 % of control and 92 % of control. The T/C (dose: 120.0 mg/kg/injection, schedule: Q01DX005 (ip), vehicle: Klucel (hydroxypropylcellulose) (HPC)) was 89 % of control and the T/C (dose: 240.0 mg/kg/injection, schedule: Q01DX005 (ip), vehicle: Klucel (hydroxypropylcellulose) (HPC)) was 96 % of control.

With CC1(C)Oc2ccc3ccccc3c2C(c2ccc(O)cc2)=C1c1ccccc1 the T/C [12] was 103 % of control, the T/C [13] was 99 % of control and the T/C [14] was 94 % of control.

COCc1onc(-c2ccc(OC)cc2)c1-c1ccc(OC)cc1 was tested, and the T/C [4] was 105 % of control, the T/C [5] was 100 % of control and the T/C [6] was 100 % of control.

For CSc1nnc2nc[nH]n12, the T/C [15] was 102 % of control and the T/C [16] was 98 % of control.

For c1ccc(P2(c3ccccc3)(c3ccccc3)C3C4C5C6C4C2C6C53)cc1 (stereo not drawn), the T/C (dose: 50.0 mg/kg/injection, schedule: Q01DX001 (ip), vehicle: saline with Tween-80) was 109 % of control, the T/C [15] was 104 % of control and the T/C [16] was 113 % of control.

In the case of CCOC(=O)Nc1cc2c(c(N)n1)N=C(CN(C)c1ccccc1)CN2, the T/C (dose: 1.56 mg/kg/injection, schedule: Q01DX009 (ip), vehicle: Klucel (hydroxypropylcellulose) (HPC)) is reported as 112 % of control and 123 % of control, the T/C (dose: 3.12 mg/kg/injection, schedule: Q01DX009 (ip), vehicle: Klucel (hydroxypropylcellulose) (HPC)) is reported as 100 % of control and 111 % of control and the T/C (dose: 6.25 mg/kg/injection, schedule: Q01DX009 (ip), vehicle: Klucel (hydroxypropylcellulose) (HPC)) is reported as 106 % of control and 123 % of control. For the same molecule, the T/C [17] was 124 % of control, the T/C [18] was 109 % of control and 123 % of control and the T/C [19] was 98 % of control. For the same molecule, the T/C (dose: 67.0 mg/kg/injection, schedule: Q01DX001 (ip), vehicle: Klucel (hydroxypropylcellulose) (HPC)) was 195 % of control and the T/C (dose: 100.0 mg/kg/injection, schedule: Q01DX001 (ip), vehicle: Klucel (hydroxypropylcellulose) (HPC)) was 178 % of control.

For c1cnc2nsnc2c1, the T/C [17] was 100 % of control, the T/C [18] was 97 % of control and the T/C [19] was 100 % of control and 106 % of control.

In the case of CN(C)C1CC(N2c3ccccc3Sc3ccc(Cl)cc32)C1 (stereo not drawn), the T/C (dose: 50.0 mg/kg/injection, schedule: Q04DX003 (ip), vehicle: Klucel (hydroxypropylcellulose) (HPC)) is reported as 107 % of control, the T/C (dose: 100.0 mg/kg/injection, schedule: Q04DX003 (ip), vehicle: Klucel (hydroxypropylcellulose) (HPC)) is reported as 104 % of control and the T/C (dose: 200.0 mg/kg/injection, schedule: Q04DX003 (ip), vehicle: Klucel (hydroxypropylcellulose) (HPC)) is reported as 107 % of control.

For CC1=C(C(=O)N=C(N)C(Cl)(Cl)Cl)SCCO1, the T/C (dose: 50.0 mg/kg/injection, schedule: Q01DX005 (ip), vehicle: distilled water + alcohol) was 108 % of control, the T/C (dose: 100.0 mg/kg/injection, schedule: Q01DX005 (ip), vehicle: distilled water + alcohol) was 109 % of control and the T/C (dose: 200.0 mg/kg/injection, schedule: Q01DX005 (ip), vehicle: distilled water + alcohol) was 117 % of control.

For C=C1C(=O)O[C@@H]2C[C@@]3(C)CCC[C@H](C)C3=C[C@H]12 (tested in a mixture with another compound), the T/C (dose: 7.5 mg/kg/injection, schedule: Q01DX005 (ip), vehicle: saline + alcohol) was 93 % of control, the T/C (dose: 15.0 mg/kg/injection, schedule: Q01DX005 (ip), vehicle: saline + alcohol) was 94 % of control and the T/C (dose: 30.0 mg/kg/injection, schedule: Q01DX005 (ip), vehicle: saline + alcohol) was 103 % of control. For the same molecule, the T/C (dose: 60.0 mg/kg/injection, schedule: Q01DX005 (ip), vehicle: saline + alcohol) was 100 % of control and the T/C (dose: 120.0 mg/kg/injection, schedule: Q01DX005 (ip), vehicle: saline + alcohol) was 104 % of control.

In the case of CCSc1nc(N)c(C(=O)N2CCCCC2)s1, the T/C [19] is reported as 99 % of control, the T/C (dose: 100.0 mg/kg/injection, schedule: Q01DX009 (ip), vehicle: Klucel (hydroxypropylcellulose) (HPC)) is reported as 98 % of control and the T/C (dose: 200.0 mg/kg/injection, schedule: Q01DX009 (ip), vehicle: Klucel (hydroxypropylcellulose) (HPC)) is reported as 105 % of control.

C/C(=C\C(=O)c1ccccc1)Nc1ccc(Cl)cc1 was tested, and the T/C [1] was 108 % of control, the T/C [2] was 92 % of control and the T/C [10] was 89 % of control. The T/C [11] was 99 % of control.

C/C(=N\NC(N)=Nc1ccc(C)cc1)c1ccc2c(c1)Cc1ccccc1-2 was tested, and the T/C (dose: 25.0 mg/kg/injection, schedule: Q04DX002 (ip), vehicle: saline with Tween-80) was 91 % of control, the T/C (dose: 50.0 mg/kg/injection, schedule: Q04DX002 (ip), vehicle: saline with Tween-80) was 99 % of control and the T/C (dose: 100.0 mg/kg/injection, schedule: Q04DX002 (ip), vehicle: saline with Tween-80) was 97 % of control.

On1cc/c(=N\N=C\c2ccc(N(CCCl)CCCl)cc2)c2ccc(Cl)cc21 was tested, and the T/C [2] was 101 % of control, the T/C [10] was 101 % of control and the T/C [11] was 94 % of control.

With C/C(=N\[N+](C)(C)C)c1ccccc1 the T/C (dose: 12.5 mg/kg/injection, schedule: Q04DX003 (ip), vehicle: saline with Tween-80) was 100 % of control, the T/C (dose: 25.0 mg/kg/injection, schedule: Q04DX003 (ip), vehicle: saline with Tween-80) was 100 % of control and the T/C (dose: 50.0 mg/kg/injection, schedule: Q04DX003 (ip), vehicle: saline with Tween-80) was 102 % of control. The T/C [3] was 100 % of control.

In the case of O=C(CC1=NC2NN(c3ccccc3)C(=O)C2=C1CC(=O)c1ccc(Cl)c(Cl)c1)c1ccc(Cl)c(Cl)c1 (stereo not drawn), the T/C (dose: 60.0 mg/kg/injection, schedule: Q01DX005 (ip), vehicle: saline) is reported as 99 % of control, the T/C (dose: 120.0 mg/kg/injection, schedule: Q01DX005 (ip), vehicle: saline) is reported as 100 % of control and the T/C (dose: 240.0 mg/kg/injection, schedule: Q01DX005 (ip), vehicle: saline) is reported as 107 % of control.

O=C(Nc1cc(Cl)ccc1Cl)O/N=C/c1ccncc1 was tested, and the T/C [2] was 93 % of control, the T/C [10] was 94 % of control and the T/C [11] was 94 % of control.

In the case of CC(C)CC(C(=O)O)N1C(=O)c2ccccc2C1=O (stereo not drawn), the T/C [12] is reported as 98 % of control, the T/C [13] is reported as 100 % of control and the T/C [14] is reported as 95 % of control.

From PubChem BioAssay AID330 (DTP/NCI, 2004)
